# Measured values taken from ChEMBL document CHEMBL2016435 (Bioorg Med Chem Lett, 2012).
# Legend:
# [1] = target: High affinity cGMP-specific 3',5'-cyclic phosphodiesterase 9A (Homo sapiens, UniProt O76083); assay: Inhibition of human PDE9A2 catalytic domain (181 to 506) expressed in Escherichia coli BL21 using [3H]-cAMP/[3H]-cGMP after 15 mins by liquid scintillation counting
# [2] = target: cGMP-specific 3',5'-cyclic phosphodiesterase (Homo sapiens, UniProt O76074); assay: Inhibition of human PDE5A1 catalytic domain (535 to 860) expressed in Escherichia coli BL21 using [3H]-cAMP/[3H]-cGMP after 15 mins by liquid scintillation counting
# [3] = target: 3',5'-cyclic-AMP phosphodiesterase 4D (Homo sapiens, UniProt Q08499); assay: Inhibition of human PDE4D2 catalytic domain (86 to 413) expressed in Escherichia coli BL21 using [3H]-cAMP/[3H]-cGMP after 15 mins by liquid scintillation counting
# 3',5'-cyclic-AMP phosphodiesterase 4D, sequence (Q08499 whole entry, the tested form may be a part): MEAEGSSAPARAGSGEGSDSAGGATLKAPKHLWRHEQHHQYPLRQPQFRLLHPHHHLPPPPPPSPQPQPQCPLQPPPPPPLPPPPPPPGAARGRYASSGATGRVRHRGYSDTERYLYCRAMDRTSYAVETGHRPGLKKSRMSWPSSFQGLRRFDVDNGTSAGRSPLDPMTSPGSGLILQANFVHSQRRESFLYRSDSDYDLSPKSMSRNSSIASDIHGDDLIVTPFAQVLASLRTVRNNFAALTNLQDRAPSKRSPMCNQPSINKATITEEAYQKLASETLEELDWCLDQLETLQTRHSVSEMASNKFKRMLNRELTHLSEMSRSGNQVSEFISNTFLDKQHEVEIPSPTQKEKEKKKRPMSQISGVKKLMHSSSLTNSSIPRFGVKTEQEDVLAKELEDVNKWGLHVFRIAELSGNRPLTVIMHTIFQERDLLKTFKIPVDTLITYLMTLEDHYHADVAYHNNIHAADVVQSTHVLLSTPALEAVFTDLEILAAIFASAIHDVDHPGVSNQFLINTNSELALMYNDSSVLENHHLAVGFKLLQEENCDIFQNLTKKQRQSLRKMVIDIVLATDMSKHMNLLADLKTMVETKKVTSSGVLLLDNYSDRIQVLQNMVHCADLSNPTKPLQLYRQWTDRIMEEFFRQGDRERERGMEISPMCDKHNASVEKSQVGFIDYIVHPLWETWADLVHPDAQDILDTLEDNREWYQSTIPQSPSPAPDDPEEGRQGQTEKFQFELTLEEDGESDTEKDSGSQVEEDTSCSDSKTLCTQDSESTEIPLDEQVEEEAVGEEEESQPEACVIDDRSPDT
# [4] = target: 3',5'-cyclic-AMP phosphodiesterase 4B (Homo sapiens, UniProt Q07343); assay: Inhibition of human PDE4B2 catalytic domain and UCR2 (92 to 521) expressed in Escherichia coli BL21 using [3H]-cAMP/[3H]-cGMP after 15 mins by liquid scintillation counting
# 3',5'-cyclic-AMP phosphodiesterase 4B, sequence (Q07343 whole entry, the tested form may be a part): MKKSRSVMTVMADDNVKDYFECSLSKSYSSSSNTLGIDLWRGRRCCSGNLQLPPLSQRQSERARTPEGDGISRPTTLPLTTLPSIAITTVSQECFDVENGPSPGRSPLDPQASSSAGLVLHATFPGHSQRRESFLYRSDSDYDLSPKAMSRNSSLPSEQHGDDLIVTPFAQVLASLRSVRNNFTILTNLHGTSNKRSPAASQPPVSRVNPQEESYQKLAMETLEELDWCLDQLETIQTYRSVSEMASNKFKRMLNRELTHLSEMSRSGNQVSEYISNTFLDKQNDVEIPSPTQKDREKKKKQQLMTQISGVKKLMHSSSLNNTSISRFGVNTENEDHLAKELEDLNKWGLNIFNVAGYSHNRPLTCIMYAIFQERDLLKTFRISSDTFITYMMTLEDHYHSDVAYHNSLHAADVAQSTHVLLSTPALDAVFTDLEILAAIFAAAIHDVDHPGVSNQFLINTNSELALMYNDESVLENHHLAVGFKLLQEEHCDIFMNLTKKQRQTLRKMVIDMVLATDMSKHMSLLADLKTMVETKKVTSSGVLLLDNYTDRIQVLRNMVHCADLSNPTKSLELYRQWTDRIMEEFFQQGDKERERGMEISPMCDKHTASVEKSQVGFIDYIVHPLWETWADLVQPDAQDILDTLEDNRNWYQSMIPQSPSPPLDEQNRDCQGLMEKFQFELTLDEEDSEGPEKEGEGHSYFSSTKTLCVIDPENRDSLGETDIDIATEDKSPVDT
# High affinity cGMP-specific 3',5'-cyclic phosphodiesterase 9A, sequence (O76083 whole entry, the tested form may be a part): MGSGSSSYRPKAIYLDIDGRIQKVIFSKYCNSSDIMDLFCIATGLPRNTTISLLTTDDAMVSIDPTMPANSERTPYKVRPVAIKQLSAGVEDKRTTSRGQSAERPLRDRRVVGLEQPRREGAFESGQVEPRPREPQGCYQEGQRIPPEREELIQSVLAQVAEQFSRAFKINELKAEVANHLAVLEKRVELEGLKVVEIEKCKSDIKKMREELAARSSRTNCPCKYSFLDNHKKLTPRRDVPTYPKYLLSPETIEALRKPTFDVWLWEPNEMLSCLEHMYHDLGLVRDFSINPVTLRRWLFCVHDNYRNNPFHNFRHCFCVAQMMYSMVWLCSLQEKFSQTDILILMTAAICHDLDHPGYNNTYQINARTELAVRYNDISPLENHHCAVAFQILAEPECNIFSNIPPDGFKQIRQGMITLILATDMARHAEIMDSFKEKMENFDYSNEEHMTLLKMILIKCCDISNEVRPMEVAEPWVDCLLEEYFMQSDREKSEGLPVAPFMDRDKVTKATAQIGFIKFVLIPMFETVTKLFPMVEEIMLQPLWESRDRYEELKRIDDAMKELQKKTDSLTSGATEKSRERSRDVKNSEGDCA
IC50 [1] [µM],IC50 [2] [µM],IC50 [3] [µM],IC50 [4] [µM],Structure (SMILES)
> 100,> 50,26,18.1,CC(C)=CCc1c(O)cc(-c2cc3ccc(O)cc3o2)cc1O [MORACIN C]
> 100,> 40,,4.5,Oc1cc(O)cc(-c2cc3ccc(O)cc3o2)c1 [MORACIN M]
